This experiment concerns the target T1, varroa mite proctolin receptor (VdProctR) (Varroa destructor, UniProt A0A7T1TE40).
T1 sequence (A0A7T1TE40 1-530): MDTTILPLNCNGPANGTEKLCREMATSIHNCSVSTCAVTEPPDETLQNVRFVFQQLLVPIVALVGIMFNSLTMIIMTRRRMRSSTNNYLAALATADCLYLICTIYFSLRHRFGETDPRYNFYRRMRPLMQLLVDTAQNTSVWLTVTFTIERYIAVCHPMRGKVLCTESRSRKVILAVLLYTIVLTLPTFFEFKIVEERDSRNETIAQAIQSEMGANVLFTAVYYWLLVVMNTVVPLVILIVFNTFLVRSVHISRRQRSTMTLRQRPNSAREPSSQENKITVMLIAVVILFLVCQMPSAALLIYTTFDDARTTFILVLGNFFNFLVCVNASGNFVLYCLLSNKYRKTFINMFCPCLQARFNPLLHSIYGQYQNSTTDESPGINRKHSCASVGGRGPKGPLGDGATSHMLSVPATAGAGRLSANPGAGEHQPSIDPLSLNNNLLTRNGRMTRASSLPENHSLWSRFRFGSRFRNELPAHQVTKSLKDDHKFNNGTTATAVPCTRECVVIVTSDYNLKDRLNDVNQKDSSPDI
Description: Receptor activity assay: luminescence in cells transiently transfected with varroa mite proctolin receptor. The class given is cell-based. The conditions noted are these: for EC50: varroa mite proctolin receptor; for Activity at high concentrations compared with proctolin: at 1 μM and 10 μM. On the procedure: Approximately thirty hours after transfection, the cells were collected and preincubated with coelenterazine h for the functional assay. The ligands in serial dilutions were loaded into 96-well opaque plates. Cells treated with coelenterazine h were injected into each well on an Orion microplate luminometer (Berthold) luminescent plate reader. The luminescence was measured for 20 seconds immediately after the cell injections. Data analyses were performed to determine the accumulated luminescence value for 20 seconds after extraction of blank-well luminescence. A dose-response curve was generated and the EC50 (50% effective concentration) was calculated in Origin 7 (OriginLab).

Where [1] appears, read: EC50 (nM), second set of peptidomimetics.
Where [2] appears, read: second set, EC50 relative to proctolin (14.19 nM).
[3] abbreviates: first set of experiments, EC50 relative to proctolin (0.22 nM).
Setting [4] is: first set of experiments, read-out: EC50.

From US20220338471A1, “HONEY BEE-SAFE ACARICIDAL COMPOUNDS” (Kansas State University Research Foundation, priority 2019, published 2022) come the findings set out here.

Several values for one entry are separate records, joined by “and”; a condition that tells them apart may be missing. Identical values can stand only once. Like-named read-outs stand apart in the source and are kept apart here. Square brackets hold non-standard residues; d marks the D form. Peptide text beside a SMILES is read from it. Phe(4-Cl) = N[C@@H](Cc1ccc(Cl)cc1)C(=O)O; Phe(4-F) = N[C@@H](Cc1ccc(F)cc1)C(=O)O; Hyp = O=C(O)[C@@H]1C[C@@H](O)CN1; β3hF = N[C@H](CC(=O)O)Cc1ccccc1; β3hL = CC(C)C[C@H](N)CC(=O)O; β3hP = O=C(O)C[C@@H]1CCCN1; Aib = CC(C)(N)C(=O)O

One may read the EC50 as the concentration needed to bring the measured effect to its halfway point. `CC(=O)N[C@@H](CCCNC(=N)N)C(=O)N[C@@H](Cc1ccc(F)cc1)C(=O)N[C@@H](CC(C)C)C(=O)N1C[C@H](O)C[C@H]1C(=O)N[C@H](C(=O)O)[C@@H](C)O` [Ac-2441, Ac-R[Phe(4-F)]L[HyP]T] (Ac-R[Phe(4-F)]L[Hyp]T-OH) showed an EC50 under setting [1] of 471 nM. In addition, the Fold change under setting [2] amounted to 33.20.
Under setting [1], `CC(=O)N[C@@H](CCCNC(=N)N)C(=O)N[C@@H](Cc1ccc(Cl)cc1)C(=O)N[C@@H](CC(C)C)C(=O)N1C[C@H](O)C[C@H]1C(=O)N[C@H](C(=O)O)[C@@H](C)O` [Ac-2443, Ac-R[Phe(4-Cl)]L[HyP]T] (Ac-R[Phe(4-Cl)]L[Hyp]T-OH) registered an EC50 of 108 nM. Besides, the Fold change under setting [2] is 7.64.
Molecule `CC(C)C[C@H](NC(=O)[C@H](Cc1ccc(O)cc1)NC(=O)[C@@H](N)CCCNC(=N)N)C(=O)N1CCC[C@H]1C(=O)N[C@@H](C(=O)O)[C@H](C)O` [Analog 2326, RYLP[dT]] (H-RYLP[dT]-OH; N-terminus assumed) came in with a Fold change under setting [3] of 13600.00. Besides, the EC50 under setting [4] stood at 2990 nM. Moreover, the “Agonist activity / potency on the Varroa mite proctolin receptor, in words” value (in words) is “inactive agonist”.
For the molecule `CC(C)C[C@H](NC(=O)[C@H](Cc1ccc(O)cc1)NC(=O)[C@@H](N)CCCNC(=N)N)C(=O)N1CCC[C@@H]1C(=O)N[C@H](C(=O)O)[C@@H](C)O` [Analog 2327, RYL[dP]T] (H-RYL[dP]T-OH), the Fold change under setting [3] was 2496.82. The EC50 under setting [4] was 549 nM.
On to `CC(C)C[C@@H](NC(=O)[C@H](Cc1ccc(O)cc1)NC(=O)[C@@H](N)CCCNC(=N)N)C(=O)N1CCC[C@H]1C(=O)N[C@H](C(=O)O)[C@@H](C)O` [Analog 2328, RY[dL]PT] (H-RY[dL]PT-OH), for which, under setting [3], the Fold change is 413.36. In addition, the EC50 under setting [4] was 90.9 nM.
Regarding `CC(C)C[C@H](NC(=O)[C@@H](Cc1ccc(O)cc1)NC(=O)[C@@H](N)CCCNC(=N)N)C(=O)N1CCC[C@H]1C(=O)N[C@H](C(=O)O)[C@@H](C)O` [Analog 2329, R[dY]LPT] (H-R[dY]LPT-OH), the Fold change under setting [3] is given as 672.27. For the same molecule, the EC50 under setting [4] was found to be 148 nM.
As for `CC(C)C[C@H](NC(=O)[C@H](Cc1ccc(O)cc1)NC(=O)[C@H](N)CCCNC(=N)N)C(=O)N1CCC[C@H]1C(=O)N[C@H](C(=O)O)[C@@H](C)O` [Analog 2330, [dR]YLPT] (H-[dR]YLPT-OH; N-terminus assumed), the “Activity at high concentrations compared with proctolin” value is on record as “higher than that of proctolin”. Moreover, the Fold change under setting [3] is listed as 25.55. The EC50 under setting [4] is 5.6 nM and 5.62 nM.
Regarding `CC(C)C[C@H](NC(=O)[C@H](Cc1ccc(O)cc1)NC(=O)[C@@H](N)CCCNC(=N)N)C(=O)N1CCC[C@H]1CC(=O)N[C@H](C(=O)O)[C@@H](C)O` [Analog 2331, RYL[β3P]T] (H-RYL[β3hP]T-OH; N-terminus assumed), the “Activity at high concentrations compared with proctolin” value is given as “higher than that of proctolin”. In addition, the Fold change under setting [3] is 20.00. Moreover, under setting [4], the EC50 amounted to 4.4 nM.
For `CC(C)C[C@@H](CC(=O)N1CCC[C@H]1C(=O)N[C@H](C(=O)O)[C@@H](C)O)NC(=O)[C@H](Cc1ccc(O)cc1)NC(=O)[C@@H](N)CCCNC(=N)N` [Analog 2332, RY[β3L]PT] (H-RY[β3hL]PT-OH), the Fold change under setting [3] worked out at 927.27. In addition, under setting [4], the EC50 turned out to be 204 nM.
Under setting [3], `CC(C)C[C@H](NC(=O)C[C@H](Cc1ccccc1)NC(=O)[C@@H](N)CCCNC(=N)N)C(=O)N1CCC[C@H]1C(=O)N[C@H](C(=O)O)[C@@H](C)O` [Analog 2333, R[β3F]LPT] (H-R[β3hF]LPT-OH) showed a Fold change of 991.82. Under setting [4], the EC50 amounted to 218 nM.
Turning to `CC(C)C[C@H](NC(=O)[C@H](Cc1ccc(O)cc1)NC(=O)[C@@H](N)CCCNC(=N)N)C(=O)NC(C)(C)C(=O)N[C@H](C(=O)O)[C@@H](C)O` [Analog 2335, RYL[Aib]T] (H-RYL[Aib]T-OH), the Fold change under setting [3] is reported as 10.09. In addition, the EC50 under setting [4] was 2.2 nM and 2.22 nM.
